One series addresses Src kinase (Homo sapiens, UniProt P12931). Put plainly: Z'-LYTE kinase inhibition, Src. The conditions noted are these: Table 4.
A further series has as its target Ret kinase (Homo sapiens, UniProt P07949). Briefly: Z'-LYTE kinase inhibition, Ret. Conditions: Ret IC50 (nM), Table 4.
Series [1] is described as follows: Experimental measurement of the barriers to rotation (racemization followed by chiral HPLC). It is filed as physicochemical. The conditions noted are these: for kobs: observed rate constant of racemization in ethanol at the heating temperature (not given), in s^-1. As to the method: Enantiomerically enriched atropisomeric pyrrolopyrimidine analogues were isolated via chiral HPLC (Daicel Chiralpak IA PN:80335, 3 mL/min, 80:20 or 50:50 hexanes:ethanol, 25° C.) and evaporated in vacuo. The enantiomerically enriched analogues were then dissolved in ethanol and placed in a sealed 2-dram vial and heated under constant temperature on an aluminum block. At each time point, an aliquot of the mixture was removed and quenched in an HPLC vial containing ice cold 80:20 hexanes:ethanol. Each sample was then injected into the chiral HPLC system (Daicel Chiralpak IA PN:80325, 1 mL/min, 80:20 or 50:50 hexanes:ethanol, 25° C.) and enantiomeric excess (ee) measured. The timepoint and enantiomeric excess (ee) data was then plotted in order to determine an observed rate constant, kobs, at the corresponding temperature. The barrier to rotation was then calculated using the relationship of kracemization=2*kenantiomenzation and then substituted into the Gibbs Free Energy Equation:
[formula] where h=Planck Constant, kb=Boltzmann Constant, T=Temp. (K), R=Gas Constant.

Like-named read-outs stand apart in the source and are kept apart here.

These results are taken from patent US10934300B2, “Atropisomerism for enhanced kinase inhibitor selectivity” (San Diego State University Foundation, priority 2017, dated 2021).

Sequence of Ret kinase (P07949 29-1114): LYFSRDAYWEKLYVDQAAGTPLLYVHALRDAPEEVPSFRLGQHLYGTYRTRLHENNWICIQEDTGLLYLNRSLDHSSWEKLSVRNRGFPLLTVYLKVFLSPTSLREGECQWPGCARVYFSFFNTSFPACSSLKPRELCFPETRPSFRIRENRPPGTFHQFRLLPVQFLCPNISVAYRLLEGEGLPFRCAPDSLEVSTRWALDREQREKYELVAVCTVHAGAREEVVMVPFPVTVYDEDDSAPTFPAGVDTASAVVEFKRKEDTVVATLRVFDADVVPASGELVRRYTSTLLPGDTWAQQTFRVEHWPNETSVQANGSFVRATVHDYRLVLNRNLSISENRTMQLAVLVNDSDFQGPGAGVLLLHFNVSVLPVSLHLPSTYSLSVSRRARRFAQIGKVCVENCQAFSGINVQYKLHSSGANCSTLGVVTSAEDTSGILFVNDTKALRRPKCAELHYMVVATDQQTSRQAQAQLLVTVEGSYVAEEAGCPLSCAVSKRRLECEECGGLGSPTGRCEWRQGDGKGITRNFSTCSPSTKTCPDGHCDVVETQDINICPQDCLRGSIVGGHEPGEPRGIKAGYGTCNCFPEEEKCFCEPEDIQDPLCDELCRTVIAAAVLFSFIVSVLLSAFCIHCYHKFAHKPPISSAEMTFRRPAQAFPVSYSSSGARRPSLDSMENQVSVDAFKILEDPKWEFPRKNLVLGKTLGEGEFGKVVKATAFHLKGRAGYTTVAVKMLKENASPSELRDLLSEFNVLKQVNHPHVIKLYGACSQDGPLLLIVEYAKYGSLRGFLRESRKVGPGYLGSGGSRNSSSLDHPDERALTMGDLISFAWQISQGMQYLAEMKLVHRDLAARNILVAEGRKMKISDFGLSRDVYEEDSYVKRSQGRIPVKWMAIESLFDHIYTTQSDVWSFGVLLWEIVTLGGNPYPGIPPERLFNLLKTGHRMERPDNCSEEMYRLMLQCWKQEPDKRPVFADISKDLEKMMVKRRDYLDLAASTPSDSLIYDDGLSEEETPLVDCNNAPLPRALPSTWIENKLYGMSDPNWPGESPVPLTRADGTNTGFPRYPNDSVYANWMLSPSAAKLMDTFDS
Sequence of Src kinase (P12931 whole entry): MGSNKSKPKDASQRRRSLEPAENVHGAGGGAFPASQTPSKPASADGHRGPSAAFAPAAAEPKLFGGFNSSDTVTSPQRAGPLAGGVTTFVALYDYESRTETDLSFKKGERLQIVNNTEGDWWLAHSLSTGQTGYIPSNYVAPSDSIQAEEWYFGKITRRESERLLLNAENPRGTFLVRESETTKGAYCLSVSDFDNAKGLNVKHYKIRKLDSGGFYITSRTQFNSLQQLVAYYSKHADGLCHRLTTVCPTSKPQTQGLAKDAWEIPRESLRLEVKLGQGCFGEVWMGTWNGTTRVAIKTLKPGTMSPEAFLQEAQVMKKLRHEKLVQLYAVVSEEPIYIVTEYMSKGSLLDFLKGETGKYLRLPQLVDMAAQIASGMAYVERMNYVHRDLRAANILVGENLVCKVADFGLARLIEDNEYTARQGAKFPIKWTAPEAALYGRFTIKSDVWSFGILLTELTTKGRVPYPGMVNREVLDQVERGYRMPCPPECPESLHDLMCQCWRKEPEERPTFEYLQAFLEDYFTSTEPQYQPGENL

By IC50 is commonly meant the midpoint of a concentration-inhibition curve. For `COc1ccc(C)c(-c2c(Cl)n(C(C)(C)C)c3ncnc(N)c23)c1` (atropisomer, axis not shown; (Ra)) [(Ra)-1], the IC50 against Src kinase (Src IC50 (nM)) amounted to 4550 nM; against Ret kinase it was 1580 nM.
Turning to `COc1ccc(-c2c(Cl)n(C(C)(C)C)c3ncnc(N)c23)c(C)c1` (atropisomer, axis not shown; (Ra)) [(Ra)-2], the IC50 at Src kinase (read-out: Src IC50) was > 10000 nM; at Ret kinase, 1870 nM.
As to `COc1ccc(-c2c(C)n(C(C)(C)C)c3ncnc(N)c23)c(C)c1` (atropisomer, axis not shown; (Ra)) [(Ra)-7], the IC50 against Src kinase (Src IC50 (nM)) amounted to 3320 nM; on Ret kinase, 450 nM.
On to `Cc1c(-c2cccc3ccccc23)c2c(N)ncnc2n1C(C)(C)C` (atropisomer, axis not shown; (Ra)) [(Ra)-10], for which the IC50 at Src kinase (Src IC50 (nM)) was determined as 5570 nM; against Ret kinase, 282 nM.
In the same order, the values of `Cc1c(-c2cccc3c2CCCC3)c2c(N)ncnc2n1C(C)(C)C` (atropisomer, axis not shown; (Ra)) [(Ra)-13] are > 10000 nM and > 10000 nM.
For the compound `COc1ccc(C)c(-c2c(Cl)n(C(C)(C)C)c3ncnc(N)c23)c1` (atropisomer, axis not shown; (Sa)) [(Sa)-1], the IC50 stood at 4090 nM against Src kinase (Src IC50 (nM)) and 2240 nM against Ret kinase.
In the case of `COc1ccc(-c2c(Cl)n(C(C)(C)C)c3ncnc(N)c23)c(C)c1` (atropisomer, axis not shown; (Sa)) [(Sa)-2], the IC50 at Src kinase (Src IC50 (nM)) was > 10000 nM; on Ret kinase it was 3000 nM.
Consider `COc1ccc(-c2c(C)n(C(C)(C)C)c3ncnc(N)c23)c(C)c1` (atropisomer, axis not shown; (Sa)) [(Sa)-7], for which the IC50 worked out at 4750 nM at Src kinase (Src IC50 (nM)) and 918 nM at Ret kinase.
In the case of `Cc1ccc(-c2c(C)n(C(C)C)c3ncnc(N)c23)c2ccccc12` (atropisomer, axis not shown; (Sa)) [(Sa)-11], the IC50 against Src kinase (Src IC50 (nM)) stood at 4560 nM; against Ret kinase it was 2860 nM.
`COc1cc(-c2c(Cl)n(C(C)(C)C)c3ncnc(N)c23)c(Cl)cc1C` (single isomer, unassigned) [(Ra)-3]: the IC50 at Src kinase (Src IC50 (nM)) was > 10000 nM; against Ret kinase it was 7070 nM.
For the compound `COc1ccc(Cl)c(-c2c(C)n(C(C)C)c3ncnc(N)c23)c1` (single isomer, unassigned) [(Ra)-4], the IC50 against Src kinase (Src IC50 (nM)) was 1330 nM; against Ret kinase, 699 nM.
`COc1ccc(C)c(-c2c(C)n(C(C)(C)C)c3ncnc(N)c23)c1` (single isomer, unassigned) [(Ra)-5]: the IC50 against Src kinase (Src IC50 (nM)) came out at 6370 nM; against Ret kinase, 731 nM.
As to `COc1ccc(Cl)c(-c2c(Br)n(C(C)(C)C)c3ncnc(N)c23)c1` (single isomer, unassigned) [(Ra)-6], on Ret kinase, half-maximal inhibition (IC50) was put at 1500 nM.
For the compound `COc1ccc(-c2c(CN)n(C(C)(C)C)c3ncnc(N)c23)c(C)c1` (single isomer, unassigned) [(Ra)-8], the figures for the IC50 at Src kinase (Src IC50 (nM)) and at Ret kinase were 5290 nM and 773 nM, respectively.
For `Cc1c(-c2cccc3ccccc23)c2c(N)ncnc2n1C(C)C` (single isomer, unassigned) [(Ra)-9], the IC50 came out at 1370 nM on Src kinase (Src IC50 (nM)) and 34 nM at Ret kinase.
Consider `Cc1c(-c2cncc3ccccc23)c2c(N)ncnc2n1C(C)(C)C` (single isomer, unassigned) [(Ra)-12], for which the IC50 against Src kinase (Src IC50 (nM)) is 7450 nM; on Ret kinase it was 282 nM.
Consider `COc1cc(-c2c(Cl)n(C(C)(C)C)c3ncnc(N)c23)c(Cl)cc1C` (single isomer, unassigned) [(Sa)-3], for which the IC50 against Src kinase (Src IC50 (nM)) was determined as 918 nM; against Ret kinase, 4810 nM.
On to `COc1ccc(Cl)c(-c2c(C)n(C(C)C)c3ncnc(N)c23)c1` (single isomer, unassigned) [(Sa)-4], for which the IC50 against Src kinase (Src IC50 (nM)) is 406 nM; against Ret kinase, 2270 nM.
For `COc1ccc(C)c(-c2c(C)n(C(C)(C)C)c3ncnc(N)c23)c1` (single isomer, unassigned) [(Sa)-5], in that order: 4100 nM and 2500 nM.
On to `COc1ccc(Cl)c(-c2c(Br)n(C(C)(C)C)c3ncnc(N)c23)c1` (single isomer, unassigned) [(Sa)-6], for which, on Ret kinase, the IC50 worked out at 8000 nM.
With `COc1ccc(-c2c(CN)n(C(C)(C)C)c3ncnc(N)c23)c(C)c1` (single isomer, unassigned) [(Sa)-8], the IC50 against Src kinase (Src IC50 (nM)) is > 10000 nM; against Ret kinase it was 9070 nM.
For `Cc1c(-c2cccc3ccccc23)c2c(N)ncnc2n1C(C)C` (single isomer, unassigned) [(Sa)-9], in that order: > 10000 nM and 8810 nM.
As to `Cc1c(-c2cccc3ccccc23)c2c(N)ncnc2n1C(C)(C)C` (single isomer, unassigned) [(Sa)-10], the IC50 at Src kinase (Src IC50 (nM)) is > 10000 nM; against Ret kinase, 9560 nM.
With `Cc1c(-c2cncc3ccccc23)c2c(N)ncnc2n1C(C)(C)C` (single isomer, unassigned) [(Sa)-12], the figures for the IC50 at Src kinase (Src IC50 (nM)) and against Ret kinase were 316 nM and 17 nM, respectively.
On to `COc1ccc(Cl)c(-c2c(Cl)n(C3CCCC3)c3ncnc(N)c23)c1` [Compound 1e, 6-chloro-5-(2-chloro-5-methoxyphenyl)-7-cyclopentyl-7H-pyrrolo[2,3-d]pyrimidin-4-amine], for which, in series [1], the “Barrier to Rotation” value came out at 27.2 kcal/mol and the kobs worked out at 1.24E−04.
With `COc1ccc(Br)c(-c2c(Cl)n(C3CCCC3)c3ncnc(N)c23)c1` [Compound 1f, 5-(2-bromo-5-methoxyphenyl)-6-chloro-7-cyclopentyl-7H-pyrrolo[2,3-d]pyrimidin-4-amine], in series [1], the “Barrier to Rotation” value came out at 29.0 kcal/mol and the kobs is reported as 1.01E−05.
For `COc1ccc(Cl)c(-c2c(Cl)n(C(C)(C)C)c3ncnc(N)c23)c1` [Compound 2e, 7-(tert-butyl)-6-chloro-5-(2-chloro-5-methoxyphenyl)-7H-pyrrolo[2,3-d]pyrimidin-4-amine], in series [1], the “Barrier to Rotation” value was 28.6 kcal/mol and the kobs is on record as 3.27E−05.
As to `COc1ccc(Br)c(-c2c(Cl)n(C(C)(C)C)c3ncnc(N)c23)c1` [Compound 2f, 5-(2-bromo-5-methoxyphenyl)-7-(tert-butyl)-6-chloro-7H-pyrrolo[2,3-d]pyrimidin-4-amine], in series [1], the “Barrier to Rotation” value turned out to be 30.4 kcal/mol and the kobs came to 2.68E−05.
